Results from the NIST ThermoML archive (doi:10.1016/j.jct.2012.03.015).
± gives the expanded uncertainty stated by the source.

Assay: activity coefficient (dimensionless); of the first substance listed, at infinite dilution; xn = mol fraction of the nth substance listed
Details: 101 kPa, Liquid, Chromatography, x1 = 0

Compound: Cc1ccccc1C [1,2-dimethylbenzene] + COCC[N+]1(C)CCCC1.O=S(=O)([N-]S(=O)(=O)C(F)(F)F)C(F)(F)F
- activity coefficient (318.15 K): 1.94 ± 0.13
- activity coefficient (328.15 K): 1.96 ± 0.13
- activity coefficient (338.15 K): 1.97 ± 0.13
- activity coefficient (348.15 K): 1.98 ± 0.13
- activity coefficient (358.15 K): 1.99 ± 0.14
- activity coefficient (368.15 K): 2 ± 0.14

Compound: Cc1cccc(C)c1 [1,3-dimethylbenzene] + COCC[N+]1(C)CCCC1.O=S(=O)([N-]S(=O)(=O)C(F)(F)F)C(F)(F)F
- activity coefficient (318.15 K): 2.14 ± 0.15
- activity coefficient (328.15 K): 2.16 ± 0.15
- activity coefficient (338.15 K): 2.17 ± 0.15
- activity coefficient (348.15 K): 2.19 ± 0.15
- activity coefficient (358.15 K): 2.2 ± 0.15
- activity coefficient (368.15 K): 2.22 ± 0.15

Compound: Cc1ccc(C)cc1 [1,4-dimethylbenzene] + COCC[N+]1(C)CCCC1.O=S(=O)([N-]S(=O)(=O)C(F)(F)F)C(F)(F)F
- activity coefficient (318.15 K): 2.15 ± 0.15
- activity coefficient (328.15 K): 2.17 ± 0.15
- activity coefficient (338.15 K): 2.18 ± 0.15
- activity coefficient (348.15 K): 2.2 ± 0.15
- activity coefficient (358.15 K): 2.21 ± 0.15
- activity coefficient (368.15 K): 2.23 ± 0.15

Compound: C1COCCO1 [1,4-dioxane] + COCC[N+]1(C)CCCC1.O=S(=O)([N-]S(=O)(=O)C(F)(F)F)C(F)(F)F
- activity coefficient (318.15 K): 0.66 ± 0.05
- activity coefficient (328.15 K): 0.68 ± 0.05
- activity coefficient (338.15 K): 0.7 ± 0.05
- activity coefficient (348.15 K): 0.72 ± 0.05
- activity coefficient (358.15 K): 0.74 ± 0.05
- activity coefficient (368.15 K): 0.76 ± 0.05

Compound: C=CCCCCCCCC [1-decene] + COCC[N+]1(C)CCCC1.O=S(=O)([N-]S(=O)(=O)C(F)(F)F)C(F)(F)F
- activity coefficient (318.15 K): 41.7 ± 2.9
- activity coefficient (328.15 K): 39 ± 2.7
- activity coefficient (338.15 K): 36.4 ± 2.5
- activity coefficient (348.15 K): 33.8 ± 2.3
- activity coefficient (358.15 K): 31.7 ± 2.2
- activity coefficient (368.15 K): 29.8 ± 2

Compound: C=CCCCCC [1-heptene] + COCC[N+]1(C)CCCC1.O=S(=O)([N-]S(=O)(=O)C(F)(F)F)C(F)(F)F
- activity coefficient (318.15 K): 14.1 ± 1
- activity coefficient (328.15 K): 13.4 ± 0.9
- activity coefficient (338.15 K): 12.9 ± 0.9
- activity coefficient (348.15 K): 12.3 ± 0.8
- activity coefficient (358.15 K): 11.8 ± 0.8
- activity coefficient (368.15 K): 11.4 ± 0.8

Compound: C#CCCCCC [1-heptyne] + COCC[N+]1(C)CCCC1.O=S(=O)([N-]S(=O)(=O)C(F)(F)F)C(F)(F)F
- activity coefficient (318.15 K): 4.75 ± 0.32
- activity coefficient (328.15 K): 4.71 ± 0.32
- activity coefficient (338.15 K): 4.66 ± 0.32
- activity coefficient (348.15 K): 4.62 ± 0.31
- activity coefficient (358.15 K): 4.58 ± 0.31
- activity coefficient (368.15 K): 4.55 ± 0.31

Compound: C#CCCCC [1-hexyne] + COCC[N+]1(C)CCCC1.O=S(=O)([N-]S(=O)(=O)C(F)(F)F)C(F)(F)F
- activity coefficient (318.15 K): 3.29 ± 0.22
- activity coefficient (328.15 K): 3.29 ± 0.22
- activity coefficient (338.15 K): 3.28 ± 0.22
- activity coefficient (348.15 K): 3.28 ± 0.22
- activity coefficient (358.15 K): 3.28 ± 0.22
- activity coefficient (368.15 K): 3.27 ± 0.22

Compound: CCC[N+](=O)[O-] [1-nitropropane] + COCC[N+]1(C)CCCC1.O=S(=O)([N-]S(=O)(=O)C(F)(F)F)C(F)(F)F
- activity coefficient (318.15 K): 0.74 ± 0.05
- activity coefficient (328.15 K): 0.742 ± 0.049
- activity coefficient (338.15 K): 0.743 ± 0.049
- activity coefficient (348.15 K): 0.744 ± 0.049
- activity coefficient (358.15 K): 0.746 ± 0.049
- activity coefficient (368.15 K): 0.747 ± 0.049

Compound: C#CCCCCCC [1-octyne] + COCC[N+]1(C)CCCC1.O=S(=O)([N-]S(=O)(=O)C(F)(F)F)C(F)(F)F
- activity coefficient (318.15 K): 6.85 ± 0.47
- activity coefficient (328.15 K): 6.73 ± 0.46
- activity coefficient (338.15 K): 6.58 ± 0.45
- activity coefficient (348.15 K): 6.48 ± 0.44
- activity coefficient (358.15 K): 6.37 ± 0.43
- activity coefficient (368.15 K): 6.27 ± 0.43

Compound: C=CCCC [1-pentene] + COCC[N+]1(C)CCCC1.O=S(=O)([N-]S(=O)(=O)C(F)(F)F)C(F)(F)F
- activity coefficient (318.15 K): 6.65 ± 0.45
- activity coefficient (328.15 K): 6.5 ± 0.44
- activity coefficient (338.15 K): 6.35 ± 0.43
- activity coefficient (348.15 K): 6.17 ± 0.42
- activity coefficient (358.15 K): 6.07 ± 0.41
- activity coefficient (368.15 K): 5.91 ± 0.4

Compound: CC(C)CC(C)(C)C [2,2,4-trimethylpentane] + COCC[N+]1(C)CCCC1.O=S(=O)([N-]S(=O)(=O)C(F)(F)F)C(F)(F)F
- activity coefficient (318.15 K): 26.9 ± 1.8
- activity coefficient (328.15 K): 25.1 ± 1.7
- activity coefficient (338.15 K): 23.7 ± 1.6
- activity coefficient (348.15 K): 22.3 ± 1.5
- activity coefficient (358.15 K): 21.2 ± 1.4
- activity coefficient (368.15 K): 20 ± 1.4

Compound: CCC(C)(C)C [2,2-dimethylbutane] + COCC[N+]1(C)CCCC1.O=S(=O)([N-]S(=O)(=O)C(F)(F)F)C(F)(F)F
- activity coefficient (318.15 K): 15.1 ± 1
- activity coefficient (328.15 K): 14.4 ± 1
- activity coefficient (338.15 K): 13.7 ± 0.9
- activity coefficient (348.15 K): 13.1 ± 0.9
- activity coefficient (358.15 K): 12.6 ± 0.9
- activity coefficient (368.15 K): 12 ± 0.8
